Measurements: PMC3692405, “Disease-associated mutations in CNGB3 promote cytotoxicity in photoreceptor-derived cells” (Molecular Vision, 2013)

How the values were obtained:
[1] = tested on: channel-transfected 661W cells; test: LDH-release cytotoxicity assay, channel-transfected cells; assay type: cell-based, mouse; details: CPT-cAMP alone, 0.1 to 10 µM; data not shown
Description: The mouse photoreceptor 661W cell line used in this study was generously provided by Dr. Al-Ubaidi (University of Oklahoma Health Sciences Center, Oklahoma City, OK). The 661W cells were routinely maintained in Dulbecco’s modified Eagle’s medium (Gibco, Carlsbad, CA), supplemented with 10% fetal bovine serum (Gemini Bioproducts, Sacramento, CA) and 1% penicillin/streptomycin (Gibco), at 37 °C in a humidified incubator with 5% CO2; cells were subcultured every 3–5 days. The 661W cells were transfected with pOPRSVI plasmids encoding human cone CNG channel subunits using Lipofectamine™ 2000 and OptiMEM (Life Technologies, Carlsbad, CA) according to the manufacturer’s protocol for cells in suspension. […]
For most experiments, the LDH Cytotoxicity Detection Kit (Roche Applied Science) was used according to the manufacturer’s protocol (see also [37]). […] Following treatment, half of the culture medium was transferred to another 96-well plate and the LDH released into the culture medium was measured to assess the number of damaged/dead cells. Cells in the original plate were then lysed and the total amount of cellular LDH was assessed. The percentage cytotoxicity was then calculated from the ratio of LDH concentration in the medium/cells, and was normalized to the percentage cytotoxicity in untreated cells transfected with control pOPRSVI plasmid only.

[2] = tested on: 661W cells expressing CNG channels with the F525N mutation; test: LIVE/DEAD Viability/Cytotoxicity Kit staining, cells expressing F525N; assay type: cell-based, mouse; details: 0.1 µM CPT-cGMP, 24 h; compared to WT-expressing or untreated F525N-expressing cells
Description: The viability of 661W cells transfected with WT or mutant CNG channels was also assessed using the LIVE⁄DEAD® Viability⁄Cytotoxicity Kit (Life Technologies) according to the manufacturer’s protocol. Briefly, cells were transfected under the conditions described above and plated into 4-well multi-chamber Lab-Tek glass slides (Nalge Nunc International, Rochester, NY). At the end of cyclic nucleotide treatment, cells were washed with PBS three times and stained with 2 μM calcein AM and 4 μM ethidium homodimer-1 solution at room temperature for 30 min. Fluorescence microscopy was then performed to visualize the live and dead cells. Imaging of cells was performed at the Washington State University Franceschi Microscopy and Imaging Center. Images were obtained using a 10× objective on an Axiovert 200M inverted microscope equipped with a Zeiss LSM 510 confocal laser-scanning system and a krypton-argon laser. Fluorescence was measured using an excitation wavelength of 488 nm, and a 522 DF 32 emission filter for green fluorescence and 635 DF 32 emission filter for red fluorescence.

Row | Structure (SMILES) | effect on relative cytotoxicity [1] | damaged/dead and intact/viable cells (calcein AM / ethidium homodimer-1 fluorescence) [2]
1 | Nc1ncnc2c1nc(Sc1ccc(Cl)cc1)n2[C@@H]1O[C@@H]2COP(=O)(O)O[C@H]2[C@H]1O [CPT-cAMP, CPT-adenosine 3′,5′-cyclic monophosphate] | no significant increase in relative cytotoxicity | 
2 | Nc1nc2c(nc(Sc3ccc(Cl)cc3)n2[C@@H]2O[C@@H]3COP(=O)(O)O[C@H]3[C@H]2O)c(=O)[nH]1 [CPT-cGMP, 8-(4-chlorophenylthio) guanosine 3′,5′-cyclic monophosphate] |  | more damaged/dead cells (red fluorescence) and less intact/viable cells
